Where two headings read alike, the source gives them in different places. Blank lines part the entries; values can stand above or below the molecule they belong to.
How the values were obtained:
[1] = Pharmacokinetics and brain distribution in mice after single intraperitoneal injection; format: in vivo, male C57 mice; conditions: mouse, 10 mg/kg intraperitoneal; for half-life / Tmax / Cmax: C57, ip
GPR139 = GPR139 (Homo sapiens (Human), UniProt Q6DWJ6); test: Agonistic activity on GPR139, calcium flux detection assay (FLIPR) in transfected CHO-K1 cells; format: cell-based; conditions: for EC50: calcium flux, CHO-K1 cells transfected with GPR139 plasmid, mean ± standard deviation; for Emax: CHO-K1
BALB/c mice = test: Social interaction experiment in BALB/c mice (negative symptoms of schizophrenia); format: in vivo; conditions: for Social time: 10-minute period
Text: The experimental subjects were 6-week-old male BALB/c wild-type mice, weighing approximately 22 grams, purchased from Shanghai Lingchang Biotechnology Co., Ltd. They were housed in SPF-grade breeding facilities, with 2 mice per cage, under a 12-hour light/dark cycle, with free access to food and water. All behavioral experiments in this project were completed during the light cycle. The experiment adhered to all relevant regulations and guidelines for animal welfare and ethics, and was supervised and inspected by the ethics committee and laboratory animal managers.
The length, width, and height of the behavioral box used in this experiment were all 40 cm. During the experiment, 4 mice were tested in 4 behavioral boxes at the same time. In this experiment, Etho Vision XT was used for experimental setup and video recording.
The mice were 5 weeks old when purchased. After one week of observation, the experiment was started when they were 6 weeks old and weighed about 22 grams. Before each experiment, the experimental mice were restricted from eating 18 hours in advance. On the day of the experiment, the mice were transferred to the behavioral laboratory to familiarize themselves with the environment 1 hour in advance. Subsequently, they were administered by intraperitoneal injection, and each mouse was returned to its original cage after injection. After 20 minutes, the experimental mice were placed in the behavioral box to acclimate for 10 minutes. Then, a stimulus mouse (from the same batch of BALB/c) was placed in a corner of the behavioral box, away from the experimental mouse. The two mice were allowed to explore freely for 10 minutes while their activity was monitored and recorded by a camera, and the data was archived.
The experimental data were analyzed. The social interaction time (including approaching, sniffing, grooming, chasing, attacking, etc.) was calculated for each experimental mouse over a 10-minute period, and the total social time of each mouse across different groups was analyzed by one-way analysis of variance.

[2] = male, brain tissue, mean n=3, read-out: T1/2 Brain (converted)
[3] = male, brain tissue, mean n=3, read-out: tmax Brain
[4] = male, plasma, mean n=3, read-out: T1/2 Plasma (converted)
[5] = male, plasma, mean n=3, read-out: tmax Plasma

Chain of GPR139 (Q6DWJ6 whole entry, species assumed): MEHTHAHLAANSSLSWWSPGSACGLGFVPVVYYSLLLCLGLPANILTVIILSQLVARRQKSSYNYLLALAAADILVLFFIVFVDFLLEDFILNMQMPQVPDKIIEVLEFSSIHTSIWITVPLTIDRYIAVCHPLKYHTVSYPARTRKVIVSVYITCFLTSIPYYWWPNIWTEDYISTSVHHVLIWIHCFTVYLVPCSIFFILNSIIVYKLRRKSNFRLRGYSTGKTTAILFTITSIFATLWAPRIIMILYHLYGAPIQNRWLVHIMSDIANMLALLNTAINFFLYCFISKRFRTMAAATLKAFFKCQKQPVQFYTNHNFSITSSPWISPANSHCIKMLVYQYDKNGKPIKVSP

half-life [1, 2]: 19.2 min
Tmax [1, 3]: 30 min
Cmax ([1]; male, plasma, mean n=3): 700 ng/g
half-life [1, 4]: 42 min
Tmax [1, 5]: 30 min
Cmax Brain ([1]; brain tissue, mean n=3): 713 ng/g
SMILES: C[C@H](NC(=O)Cn1ncc2cccn2c1=O)c1ccc(F)cc1 [Compound I-1]

half-life [1, 2]: 31.8 min
Tmax [1, 3]: 30 min
Cmax ([1]; male, plasma, mean n=3): 868 ng/g
half-life [1, 4]: 31.2 min
Tmax [1, 5]: 30 min
Cmax Brain ([1]; brain tissue, mean n=3): 1264 ng/g
SMILES: C[C@H](NC(=O)Cn1ncc2cccn2c1=O)c1ccc(C(F)(F)F)cc1 [Compound I-32, (S)-2-(4-oxopyrrolo[1,2-d][1,2,4]triazin-3(4H)yl)-N-(1-(4-(trifluoromethyl)phenyl)ethyl)acetamide]

Emax (GPR139): 92%
EC50 (GPR139): 120 nM
SMILES: CC(C)[C@H](NC(=O)Cn1ncc2cccn2c1=O)c1ccc(F)cc1 [Compound I-37, (S)—N-(1-(4-fluorophenyl)-2-methylpropyl)-2-(4-oxopyrrolo[1,2-d][1,2,4]triazin-3(4H)yl)acetamide]

The remaining lines, values behind:

SMILES: C[C@H](NC(=O)Cn1ncc2cccn2c1=O)c1ccccc1 [Compound I-4, (S)-2-(4-oxopyrrolo[1,2-d][1,2,4]triazin-3(4H)yl)-N-(1-phenylethyl)acetamide]
EC50 (GPR139): 111 ± 4 nM

SMILES: C[C@H](NC(=O)Cn1ncc2cccn2c1=O)c1ccc(OC(F)(F)F)cc1 [Compound I-5, (S)-2-(4-oxopyrrolo[1,2-d][1,2,4]triazin-3(4H)yl)-N-(1-(4-(trifluoromethoxy)phenyl)ethyl)acetamide]
One-way analysis of variance (social time) (BALB/c mice; 0.3 mg/kg intraperitoneal): No difference
Social time (BALB/c mice; 0.3 mg/kg intraperitoneal): 107 ± 15 s
One-way analysis of variance (social time) (BALB/c mice; 1 mg/kg intraperitoneal): No difference
Social time (BALB/c mice; 1 mg/kg intraperitoneal): 103 ± 17 s
Social time (BALB/c mice; 3 mg/kg intraperitoneal): 129 ± 12 s
Effect on social disorders in mice (BALB/c mice; dose of 3 mg/kg): significant improvement effect

SMILES: Cc1ccc2cnn(CC(=O)N[C@@H](C)c3ccccc3)c(=O)n12 [Compound I-14, (S)-2-(6-methyl-4-oxopyrrolo[1,2-d][1,2,4]triazin-3(4H)yl)-N-(1-phenylethyl)acetamide]
EC50 (GPR139): 13 ± 2 nM

SMILES: Cc1ccc([C@H](C)NC(=O)Cn2ncc3c(C)cc(C)n3c2=O)cc1 [Compound I-18, (S)-2-(6,8-dimethyl-4-oxopyrrolo[1,2-d][1,2,4]triazin-3(4H)yl)-N-(1-(p-tolyl)ethyl)acetamide]
EC50 (GPR139): 93 ± 15 nM

SMILES: Cc1cc(C)n2c(=O)n(CC(=O)N[C@@H](C)c3ccc(Cl)cc3)ncc12 [Compound I-22, (S)—N-1-(4-chlorophenyl)ethyl-2-(6,8-dimethyl-4-oxopyrrolo[1,2-d][1,2,4]triazin-3(4H)yl)acetamide]
EC50 (GPR139): 56 ± 11 nM

SMILES: Cc1ccc2cnn(CC(=O)N[C@H](c3ccc(F)cc3)C(C)C)c(=O)n12 [Compound I-39, (S)—N-(1-(4-fluorophenyl)-2-methylpropyl)-2-(6-methyl-4-oxopyrrolo[1,2-d][1,2,4]triazin-3(4H)yl)acetamide]
Emax (GPR139): 94%
EC50 (GPR139): 26 nM

SMILES: C[C@H](NC(=O)Cn1nnc2ccccc2c1=O)c1ccc(OC(F)(F)F)cc1 [TAK-041, reference compound]
Kp ([1]; male, C57, brain and plasma, ip): 0.892
Tmax [1, 3]: 30 min
Tmax [1, 5]: 360 min
Cmax Brain ([1]; brain tissue, mean n=3): 6754 ng/g
T1/2 Brain ([1]; brain tissue, mean n=3): 108 h
Cmax Plasma ([1]; plasma, mean n=3): 7057 ng/g
Social time (BALB/c mice; 1 mg/kg intraperitoneal): 93 ± 26 s
Social time (BALB/c mice; 3 mg/kg intraperitoneal): 129 ± 28 s

Reference: patent US20250163065A1, “PYRROLOTRIAZINONE COMPOUND, PHARMACEUTICAL COMPOSITION COMPRISING SAME, PREPARATION METHOD THEREFOR, AND USE THEREOF” (SHANGHAITECH UNIVERSITY, priority 2022, published 2025)
